Measured values as given in patent publication US20250313546A1, “NUCLEIC ACID BINDERS” (UNIVERSITY OF STRATHCLYDE, priority 2022, published 2025).
Converted amounts (≈) assume the structure as drawn.

Tests used:
Assay in all cases: Antibacterial MIC, broth microdilution (CLSI)
Assay type in all cases: cell-based
[1] = tested on: Staphylococcus aureus (ATCC 43300); details: for MIC80: Staphylococcus aureus, ATCC43300, read-out: MIC80 S. aureus
[2] = tested on: Enterococcus faecalis (ATCC 51299); details: for MIC80: Enterococcus faecalis, ATCC51299, read-out: MIC80 E. faecalis
[3] = tested on: Escherichia coli (ATCC 25922); details: for MIC80: Escherichia coli, ATCC25922, read-out: MIC80 E. coli

How did the MIC80 [1] turn out when `[H]/N=C(\CCNC(=O)c1cc(NC(=O)c2cc(NC(=O)c3ccc(C=Cc4ccc(N(C)C)cc4)nc3)cn2C)cn1C)N1CCSCC1` [Ib9, (E)-6-(4-(dimethylamino)styryl)-N-(5-((5-((3-imino-3-thiomorpholinopropyl)carbamoyl)-1-methyl-1H-pyrrol-3-yl)carbamoyl)-1-methyl-1H-pyrrol-3-yl)nicotinamide] was run?
Its MIC80 is less than 5 µM.

And the MIC80 [2]?
Its MIC80 is 25 to 100 µM (≈ 16.7 to 66.8 µg/mL).

What about the MIC80 [3] of the same compound?
The MIC80 was greater than 100 µM.

What does the source list for `Cn1cc(NC(=O)c2cc(NC(=O)c3ccc(/C=C/c4cnc5ccccc5c4)cc3)cn2C)cc1C(=O)NCCC(=N)NCCc1ccccc1` [Ia48, (E)-N-(3-imino-3-(phenethylamino)propyl)-1-methyl-4-(1-methyl-4-(4-(2-(quinolin-3-yl)vinyl)benzamido)-1H-pyrrole-2-carboxamido)-1H-pyrrole-2-carboxamide]?
MIC80 [1]: < 5 µM; MIC80 [2]: < 5 µM; MIC80 [3]: > 100 µM

`C/N=C(/CCNC(=O)c1cc(NC(=O)c2cc(NC(=O)c3ccc(/C=C/c4ccc(F)cc4)nc3)cn2C)cn1C)NC` [Ia65, 6-((E)-4-fluorostyryl)-N-(1-methyl-5-((1-methyl-5-(((Z)-3-(methylamino)-3-(methylimino)propyl)carbamoyl)-1H-pyrrol-3-yl)carbamoyl)-1H-pyrrol-3-yl)nicotinamide] was tested. Which MIC80 [1] did it give?
Its MIC80 is less than 5 µM.

With `C/N=C(\CCNC(=O)c1cc(NC(=O)c2cc(NC(=O)c3ccc(/C=C/c4ccc(OC)cc4)nc3)cn2C)cn1C)NC` [Ia54, 6-((E)-4-methoxystyryl)-N-(1-methyl-5-((1-methyl-5-(((E)-3-(methylamino)-3-(methylimino)propyl)carbamoyl)-1H-pyrrol-3-yl)carbamoyl)-1H-pyrrol-3-yl)nicotinamide] as the compound, how does the MIC80 [1] read?
Its MIC80 is 5 to 25 µM (≈ 2.98 to 14.9 µg/mL).

And the MIC80 [2]?
Its MIC80 is 5 to 25 µM (≈ 2.98 to 14.9 µg/mL).

What about the MIC80 [3] of the same compound?
The MIC80 was greater than 100 µM.

Which results are given for `COCCNC(=O)c1cc(NC(=O)c2cc(NC(=O)c3ccc(/C=C/c4cnc5ccccc5c4)cc3)cn2C)cn1C` [IVa18, (E)-N-(2-methoxyethyl)-1-methyl-4-(1-methyl-4-(4-(2-(quinolin-3-yl)vinyl)benzamido)-1H-pyrrole-2-carboxamido)-1H-pyrrole-2-carboxamide]?
MIC80 [1]: < 5 µM; MIC80 [2]: < 5 µM; MIC80 [3]: > 100 µM

Which MIC80 [1] does the source give for `CN(C)c1ccc(/C=C/c2ccc(C(=O)Nc3cc(C(=O)Nc4cc(C(=O)NCCCCCC(=N)N)n(C)c4)n(C)c3)cn2)cc1` [II4, (E)-N-(5-((5-((6-amino-6-iminohexyl)carbamoyl)-1-methyl-1H-pyrrol-3-yl)carbamoyl)-1-methyl-1H-pyrrol-3-yl)-6-(4-(dimethylamino)styryl)nicotinamide] here?
The MIC80 was 5 to 25 µM (≈ 3.12 to 15.6 µg/mL).

What about the MIC80 [2] of the same compound?
The MIC80 was greater than 100 µM.

And the MIC80 [3]?
Its MIC80 is greater than 100 µM.

How did the “MIC80 S. aureus” value ([1]; MIC at 80% inhibition, ATCC 43300) turn out when “N-(5-((5-(((Z)-3-(ethylamino)-3-(ethylimino)propyl)carbamoyl)-1-methyl-1H-pyrrol-3-yl)carbamoyl)-1-methyl-1H-pyrrol-3-yl)-6-((E)-3-methoxystyryl)nicotinamide [Ia26]” was run?
The value was “* (* means 25 μM < MIC80 <= 100 μM)”.

What about the “MIC80 E. faecalis” value ([2]; MIC at 80% inhibition, ATCC 51299) of the same compound?
Its value is “— (— means MIC80 > 100 μM)”.

What about the “MIC80 E. coli” value ([3]; MIC at 80% inhibition, ATCC 25922) of the same compound?
Its value is “— (— means MIC80 > 100 μM)”.

Which MIC80 [1] does the source give for `Cn1cc(NC(=O)c2cc(NC(=O)c3ccc(/C=C/c4cnc5ccccc5c4)cc3)cn2C)cc1C(=O)NCCCCCC(=N)N` [II3, (E)-N-(6-amino-6-iminohexyl)-1-methyl-4-(1-methyl-4-(4-(2-(quinolin-3-yl)vinyl)benzamido)-1H-pyrrole-2-carboxamido)-1H-pyrrole-2-carboxamide] here?
Its MIC80 is 5 to 25 µM (≈ 3.15 to 15.8 µg/mL).

And the MIC80 [2]?
Its MIC80 is greater than 100 µM.

And the MIC80 [3]?
The MIC80 was greater than 100 µM.

`C/N=C(/CCNC(=O)c1cc(NC(=O)c2cc(NC(=O)c3ccc(/C=C/c4cncnc4)cc3)cn2C)cn1C)NC` [Ia60, 1-methyl-4-(1-methyl-4-(4-((E)-2-(pyrimidin-5-yl)vinyl)benzamido)-1H-pyrrole-2-carboxamido)-N—((Z)-3-(methylamino)-3-(methylimino)propyl)-1H-pyrrole-2-carboxamide] was tested. Which MIC80 [1] did it give?
Its MIC80 is less than 5 µM.

And the MIC80 [2]?
The MIC80 was 5 to 25 µM (≈ 2.84 to 14.2 µg/mL).

What about the MIC80 [3] of the same compound?
The MIC80 was greater than 100 µM.

For `[H]/N=C(\CCNC(=O)c1cc(NC(=O)c2cc(NC(=O)c3ccc(C=Cc4ccc(N(C)C)cc4)nc3)cn2C)cn1C)NOC` [Ia31, (E)-6-(4-(dimethylamino)styryl)-N-(5-((5-((3-imino-3-(methoxyamino)propyl)carbamoyl)-1-methyl-1H-pyrrol-3-yl)carbamoyl)-1-methyl-1H-pyrrol-3-yl)nicotinamide], which MIC80 [1] is on record?
Its MIC80 is less than 5 µM.

What about the MIC80 [2] of the same compound?
The MIC80 was 5 to 25 µM (≈ 3.06 to 15.3 µg/mL).

And the MIC80 [3]?
Its MIC80 is greater than 100 µM.

How did the MIC80 [1] turn out when `CNC(=N)CCNC(=O)c1cc(NC(=O)c2cc(NC(=O)c3ccc(/C=C/c4ccc5ccccc5c4)cc3)cn2C)cn1C` [Ia4, (E)-N-(3-imino-3-(methylamino)propyl)-1-methyl-4-(1-methyl-4-(4-(2-(naphthalen-2-yl)vinyl)benzamido)-1H-pyrrole-2-carboxamido)-1H-pyrrole-2-carboxamide] was run?
The MIC80 was 5 to 25 µM (≈ 3.01 to 15 µg/mL).

What about the MIC80 [3] of the same compound?
Its MIC80 is greater than 100 µM.

How did the MIC80 [1] turn out when `CC[N+](C)(C)CCCNC(=O)c1cc(NC(=O)c2cc(NC(=O)c3ccc(/C=C/c4cccc(C(F)(F)F)c4)nc3)cn2C)cn1C` [Ic20, (E)-N-ethyl-N,N-dimethyl-3-(1-methyl-4-(1-methyl-4-(6-(3-(trifluoromethyl)styryl)nicotinamido)-1H-pyrrole-2-carboxamido)-1H-pyrrole-2-carboxamido)propan-1-aminium] was run?
The MIC80 was 25 to 100 µM.

With `C/N=C(/CCNC(=O)c1cc(NC(=O)c2cc(NC(=O)c3ccc(/C=C/c4cccc(F)c4)cc3)cn2C)cn1C)NC` [Ia64, 4-(4-((E)-3-fluorostyryl)benzamido)-1-methyl-N-(1-methyl-5-(((Z)-3-(methylamino)-3-(methylimino)propyl)carbamoyl)-1H-pyrrol-3-yl)-1H-pyrrole-2-carboxamide] as the compound, how does the MIC80 [1] read?
The MIC80 was 5 to 25 µM (≈ 2.92 to 14.6 µg/mL).

How did the MIC80 [1] turn out when `CNC(=N)CCNC(=O)c1cc(NC(=O)c2cc(NC(=O)c3ccc(/C=C/c4ccc(C(F)(F)F)cc4)cc3)cn2C)cn1C` [Ia2, (E)-N-(3-imino-3-(methylamino)propyl)-1-methyl-4-(1-methyl-4-(4-(4-(trifluoromethyl)styryl)benzamido)-1H-pyrrole-2-carboxamido)-1H-pyrrole-2-carboxamide] was run?
Its MIC80 is less than 5 µM.

What about the MIC80 [3] of the same compound?
The MIC80 was greater than 100 µM.

`CC[N+](C)(C)CCCNC(=O)c1cc(NC(=O)c2cc(NC(=O)c3ccc(/C=C/c4ccc5nonc5c4)cc3)cn2C)cn1C` [Ic22, (E)-3-(4-(4-(4-(2-(benzo[c][1,2,5]oxadiazol-5-yl)vinyl)benzamido)-1-methyl-1H-pyrrole-2-carboxamido)-1-methyl-1H-pyrrole-2-carboxamido)-N-ethyl-N,N-dimethylpropan-1-aminium] was tested. Which MIC80 [1] did it give?
The MIC80 was 25 to 100 µM.

Which MIC80 [1] does the source give for `CC[N+](C)(C)CCCNC(=O)c1cc(NC(=O)c2cc(NC(=O)c3ccc(/C=C/c4cnc5ccccc5c4)cc3)cn2C)cn1C` [Ic23, (E)-N-ethyl-N,N-dimethyl-3-(1-methyl-4-(1-methyl-4-(4-(2-(quinolin-3-yl)vinyl)benzamido)-1H-pyrrole-2-carboxamido)-1H-pyrrole-2-carboxamido)propan-1-aminium] here?
The MIC80 was 5 to 25 µM.

Which MIC80 [1] does the source give for `CC[N+](C)(C)CCCNC(=O)c1cc(NC(=O)c2cc(NC(=O)c3ccc(/C=C/c4ccc(F)c(OC)c4)nc3)cn2C)cn1C` [Ic21, (E)-N-ethyl-3-(4-(4-(6-(4-fluoro-3-methoxystyryl)nicotinamido)-1-methyl-1H-pyrrole-2-carboxamido)-1-methyl-1H-pyrrole-2-carboxamido)-N,N-dimethylpropan-1-aminium] here?
The MIC80 was 25 to 100 µM.
